Measurements published in US11440913B2, “Aminoimidazopyridazines as kinase inhibitors” (BRISTOL-MYERS SQUIBB COMPANY, priority 2017, dated 2022).

What follows are compounds tested on MLKL phosphorylation in HT29-L23 human colorectal adenocarcinoma cells (assay: MLKL Phosphorylation High-Content Assay). Details: Homo sapiens, 6 h, necroptosis induced with TNFα, SMAC mimetic and Z-VAD, read-out: pMLKL (IC50).
Assay type: cell-based
Procedure: MLKL Phosphorylation High-Content Assay
HT29-L23 human colorectal adenocarcinoma cells were maintained in RPMI 1640 medium containing 10% heat-inactivated FBS, 1% Pennicilin-Streptomycin and 10 mM HEPES. Cells were seeded at 2,000 cells/well in 384 w tissue culture-treated microplates (Greiner #781090-3B) and incubated at 37° C. (5% CO2/95% O2) for two days. On the day of assay, the cells were treated with test compounds at final concentrations of 6.25 to 0.106 μM for 30 min at 37° C. (5% CO2/95% O2). Necroptopsis was induced using a mixture of human TNFα (35 ng/mL) (Peprotech #300-01A), SMAC mimetic (from US 2015/0322111 A1) (700 nM) and Z-VAD (140 nM) (BD pharmingen #51-6936). Following six hours incubation at 37° C. (5% CO2/95% O2), the cells were fixed with 4% formaldedye (ACROS 11969-0010) for 15 min at room temperature and then permeabilized with phoshpate buffered saline (PBS) containing 0.2% Triton-X-100 for 10 min. MLKL phosporylation was detected using anti-MLKL (phospho S358) antibody (Abcam # ab187091) (1:1000 dilution in Blocking Buffer [PBS supplemented with 0.1% BSA]) with overnight incubation at 4° C. After washing three times in PBS, goat anti-rabbit Alexa-488 (1:1000 dilution) (Life Technologies, A11008) and Hoechst 33342 (Life Technologies, H3570) (1:2000 dilution) in Blocking Buffer were added for 1 h at room temperature. Following another three cycles of washes in PBS, the microplates were sealed, and cellular images were acquired in the Cellomics ArrayScan VTI high-content imager equipped with an X1 camera. Fluorescent images were taken using a 10× objective and the 386-23 BGRFRN_BGRFRN and 485-20 BGRFRN_BGRFRN filter sets, for nuclei and MLKL phosphorylation, respectively. The image sets were analyzed using the Compartmental Analysis Bioapplication software (Cellomics). The level of MLKL phosphorylation was quantified as MEAN_CircRingAvgIntenRatio. […] The IC50 value was defined as the concentration of compound that produces 50% of the maximal inhibition. The data were fitted using the 4-parameter logistic equation to calculate the IC50 and Ymax values.
With `CC(=O)Nc1cn2nc(-c3cc(F)c(C)c(C(=O)NCc4cc(-c5cnn(C)c5)ccc4F)c3)ccc2n1` [Example 358, 5-(2-acetamidoimidazo[1,2-b]pyridazin-6-yl)-3-fluoro-N-(2-fluoro-5-(1-methyl-1H-pyrazol-4-yl)benzyl)-2-methylbenzamide] the IC50 was 49 nM. `CC(=O)Nc1cn2nc(-c3cc(C(=O)NCc4cc(OC(F)(F)F)ccc4F)ccc3C)ccc2n1` [Example 433, 3-{2-acetamidoimidazo [1,2-b]pyridazin-6-yl}-N-{[2-fluoro-5-(trifluoromethoxy)phenyl]methyl}-4-methylbenzamide] gave an IC50 of 34 nM. `CC(=O)Nc1cn2nc(-c3c(F)c(F)cc(C(=O)NCc4cc(C(F)(F)F)ccc4F)c3F)ccc2n1` [Example 369, 3-{2-acetamidoimidazo [1,2-b]pyridazin-6-yl}-2,4,5-trifluoro-N-{[2-fluoro-5-(trifluoromethyl)phenyl]methyl} benzamide] showed an IC50 of 61 nM. In the case of `COc1ccc(-c2ccc3nc(NC(C)=O)cn3n2)c(F)c1C(=O)NCC[C@@H](O)c1ccc(Cl)cc1` [Example 374, N-[(3R)-3-(4-chlorophenyl)-3-hydroxypropyl]-3-{2-acetamidoimidazo [1,2-b]pyridazin-6-yl}-2-fluoro-6-methoxybenzamide], the IC50 is reported as 19 nM. Compound `COc1ccc(-c2ccc3nc(NC(C)=O)cn3n2)cc1C(=O)NCc1cc(OC(F)(F)F)ccc1F` [Example 418, 5-{2-acetamidoimidazo [1,2-b]pyridazin-6-yl}-N-{[2-fluoro-5-(trifluoromethoxy)phenyl]methyl}-2-methoxybenzamide] has an IC50 of 26 nM. For `COc1ncc(-c2ccc3nc(NC(C)=O)cn3n2)cc1C(=O)NCc1cc(F)ccc1C(=O)N1CCC(F)(F)C1` [Example 323, N-{[2-(3,3-difluoropyrrolidine-1-carbonyl)-5-fluorophenyl]methyl}-5-{2-acetamidoimidazo[1,2-b]pyridazin-6-yl}-2-methoxypyridine-3-carboxamide], the IC50 was 9 nM. Compound `CC(=O)Nc1cn2nc(-c3c(F)ccc(C(=O)N[C@H](C)c4cc(C(F)(F)F)ccc4F)c3F)ccc2n1` [Example 423, 3-{2-acetamidoimidazo [1,2-b]pyridazin-6-yl}-2,4-difluoro-N-[(1R)-1-[2-fluoro-5-(trifluoromethyl)phenyl]ethyl] benzamide] has an IC50 of 109 nM. `COc1ncc(-c2ccc3nc(NC(C)=O)cn3n2)cc1C(=O)NCc1cc(F)cc(F)c1C(=O)N1CCC(F)(F)C1` [Example 324, N-{[2-(3,3-difluoropyrrolidine-1-carbonyl)-3,5-difluorophenyl]methyl}-5-{2-acetamidoimidazo[1,2-b]pyridazin-6-yl}-2-methoxypyridine-3-carboxamide] gave an IC50 of 3 nM. `CC(=O)Nc1cn2nc(-c3ccc(C)c(C(=O)Nc4cnn(Cc5ccccc5)c4)c3)ccc2n1` [Example 399, N-(1-benzyl-1H-pyrazol-4-yl)-5-{2-acetamidoimidazo [1,2-b]pyridazin-6-yl}-2-methylbenzamide] was tested, and the IC50 was 5 nM. `Cc1ncc(-c2ccc3nc(NC(=O)CN4CCOCC4)cn3n2)cc1C(=O)N[C@H](C)c1cc(OC(F)(F)F)ccc1F` [Example 337, N-[(1R)-1-[2-fluoro-5-(trifluoromethoxy)-phenyl]ethyl]-2-methyl-5-{2-[2-(morpholin-4-yl)acetamido]imidazo[1,2-b]pyridazin-6-yl}pyridine-3-carboxamide] gave an IC50 of 11 nM. With `Cc1ncc(-c2ccc3nc(NC(=O)CN4CCOCC4)cn3n2)cc1C(=O)NCC[C@H](O)c1ccc(Cl)cc1` [Example 346, N-[(3S)-3-(4-chlorophenyl)-3-hydroxypropyl]-2-methyl-5-{2-[2-(morpholin-4-yl)acetamido]imidazo[1,2-b]pyridazin-6-yl}pyridine-3-carboxamide] the IC50 was 82 nM.

Same assay, conditions: necroptosis induced with TNFα, SMAC mimetic and Z-VAD, 6 h, read-out: pMLKL (IC50)
For `CC(=O)Nc1cn2nc(-c3cc(C(=O)NCc4cccnc4OCC4CCC4)c(C)nc3C)ccc2n1` [Example 86, N-{[2-(cyclobutylmethoxy)pyridin-3-yl]methyl}-5-{2-acetamidoimidazo[1,2-b]pyridazin-6-yl}-2,6-dimethylpyridine-3-carboxamide], the IC50 was 27 nM.
